Assay results reported in PubChem BioAssay (NCI).
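Step 1: Grow cells in 96-well plates. Step 2: Expose to compound for 48 hours at 5 concentrations. Step 3: Interpolate endpoints linearly; if unreached, use highest concentration. At the GI50, growth is halved. TGI: concentration producing complete growth inhibition.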

Assays:
Assay in all cases: DTP human tumour cell line panel, 48 h
[1] = test system: OVCAR-4 ovarian
[2] = test system: LOX IMVI melanoma
[3] = test system: DU-145 prostate
[4] = test system: HT29 colon
[5] = test system: 786-0 renal
[6] = test system: SK-MEL-28 melanoma
[7] = test system: HOP-92 NSCLC
[8] = test system: COLO 205 colon
[9] = test system: SK-MEL-5 melanoma
[10] = test system: KM12 colon

SMILES	GI50 [1] [µM]	TGI [1] [µM]	GI50 [2] [µM]	TGI [2] [µM]	GI50 [3] [µM]	TGI [3] [µM]	GI50 [4] [µM]	TGI [4] [µM]	GI50 [5] [µM]	TGI [5] [µM]	GI50 [6] [µM]	TGI [6] [µM]	GI50 [7] [µM]	TGI [7] [µM]	GI50 [8] [µM]	TGI [8] [µM]	GI50 [9] [µM]	TGI [9] [µM]	GI50 [10] [µM]	TGI [10] [µM]
Cc1ccc(S(=O)(=O)N2CCc3ccc(O)c4c3C2Cc2ccc3c(c2-4)OCO3)cc1 (stereo not given)	0.934	33.3	0.635	4.68	1.27	8.63	2.79	7.25	0.894	20.8	0.668	18.6	0.417	3.51	5.08	18.7	0.486	2.18	0.456	3.66
CC1(C)N=C(N)N=C(N)N1c1cccc(Br)c1	8.66	> 100	0.146	> 100	0.895	> 100	0.255	> 100	0.093	> 100	14	> 100	> 100	> 100	8.39	> 100	1.03	> 100	0.769	> 100
Nc1ccc(Sc2c3ccccc3nc3ccccc23)cc1	–	29.4	–	13.9	–	28.7	–	32	–	14.7	–	24.8	–	> 38	–	37.6	–	30.6	–	40.4
COc1cccc(Nc2nccc(-c3cnn4ncccc34)n2)c1	0.0903	17.8	0.0275	> 25	0.0884	> 25	0.0513	0.198	0.0871	> 25	0.0395	0.14	0.0392	0.157	0.0433	0.0988	0.0588	0.561	0.0629	0.367
O=C(/C=C/OC(=O)c1cccc(Cl)c1)c1ccc(Cl)cc1	> 72.5	> 100	36.5	> 100	44	> 100	50	> 100	> 91.7	> 100	58.1	> 100	33.5	> 100	> 65	> 100	55.2	> 100	> 74.6	> 100
[CH3][Sn]([CH3])([CH3])[O][N+](=O)[O-]	2.66	5.53	2.52	6.63	> 10	> 10	5.8	> 10	1.92	3.51	> 10	> 10	3.39	> 10	> 10	> 10	1.52	2.97	> 10	> 10
